The text below walks through data of ChEMBL document CHEMBL1201862, “PubChem BioAssay data set” (2004).

Where “and” joins values, the source holds several entries; their conditions need not be identical. Equal values may be shown once.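 Five concentrations, 48 hours, 96-well plates. Abbreviation: GI50, concentration required for 50% inhibition of growth.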 Calls of active or inactive are those of the source. No stated cut-off is given here; in the data, active = GI50 up to about 1.1 µM and inactive = higher.

Some test systems named below: 786-0; A549; HCT-15; SK-MEL-5; M14; OVCAR-3; KM12; NCI-H226; Malme-3M; SK-OV-3; NCI-H522; SN12C; EKVX; CCRF-CEM; UACC-257; COLO 205; OVCAR-4; SR; A498; RXF 393.
Holding throughout (assay): NCI tumour cell line growth inhibition, 48 h

For `COc1ccc2c(c1)-c1oc3ccccc3c(=O)c1CO2`, the GI50 is 31.7 µM (inactive) in the experiment with 786-0; 43 µM (inactive) in the experiment on A549; 24.9 µM in the experiment on HCT-15; 17.4 µM (inactive) with SK-MEL-5; 57.7 µM (inactive) in the experiment on M14; 31.3 µM (inactive) in the experiment with OVCAR-3. The GI50 with KM12 was 39.5 µM (inactive); in the experiment with NCI-H226, 50.4 µM (inactive); in the experiment on Malme-3M, 55.8 µM (inactive); with SK-OV-3 it was 35.4 µM (inactive); with NCI-H522, 32.1 µM (inactive); with SN12C, 32.7 µM (inactive). Besides, the GI50 in the experiment with EKVX is 25 µM (inactive); in the experiment on CCRF-CEM it was 20.5 µM (inactive); with UACC-257 it was 31.8 µM (inactive); with COLO 205, 31.4 µM (inactive).

As for `CC1OC1C(=O)P(=O)(O)O` (configuration not stated), the GI50 with OVCAR-4 was > 100 µM (inactive); with A549, > 100 µM (inactive); in the experiment with SR it was > 100 µM (inactive); in the experiment on HCT-15 it was more than 100 µM; in the experiment with SK-MEL-5, > 100 µM (inactive); with M14, > 100 µM (inactive). For the same compound, the GI50 in the experiment on OVCAR-3, with KM12, in the experiment on NCI-H226, in the experiment on A498, in the experiment on SK-OV-3 and with NCI-H522 was > 100 µM (inactive) in each case. For the same compound, the GI50 in the experiment with SN12C, in the experiment with EKVX, in the experiment with CCRF-CEM, with UACC-257 and in the experiment on COLO 205 was > 100 µM (inactive) in each case.

As to `c1ccc(/N=C(\N2CCCCC2)N(CCN2CCCCC2)c2ccccc2)cc1`, the GI50 in the experiment with OVCAR-4 was 1.2 µM (inactive); in the experiment on A549, 2.11 µM (inactive); in the experiment with SR it was 0.28 µM (active); in the experiment on HCT-15, 1.68 µM; in the experiment on SK-MEL-5, 1.36 µM (inactive); in the experiment on M14 it was 1.5 µM (inactive). The GI50 in the experiment on OVCAR-3 was 0.401 µM (active); with NCI-H226, 2.62 µM (inactive); in the experiment with SK-OV-3 it was 1.65 µM (inactive); in the experiment on NCI-H522 it was 0.428 µM (active); in the experiment on SN12C, 2.11 µM (inactive); with CCRF-CEM, 1 µM (active). For the same compound, the GI50 with UACC-257 is 1.82 µM (inactive); in the experiment with COLO 205 it was 0.658 µM (active).

With `Clc1ccc(OC2CCO2)cc1Cl` (configuration not stated), the GI50 in the experiment on OVCAR-4 was 60 µM (inactive); with 786-0, 85.9 µM (inactive); in the experiment with A549 it was > 100 µM (inactive); in the experiment on HCT-15, 15.7 µM; in the experiment on SK-MEL-5 it was 62.1 µM (inactive); in the experiment on M14, > 100 µM (inactive). The GI50 in the experiment with OVCAR-3 was 57.8 µM (inactive); in the experiment with KM12, 76.6 µM (inactive); in the experiment on NCI-H226, 52.8 µM (inactive); with A498, 38 µM (inactive); in the experiment with Malme-3M, > 100 µM (inactive); in the experiment on SK-OV-3, > 100 µM (inactive). Besides, the GI50 with NCI-H522 is 34.3 µM (inactive); with SN12C, 88.5 µM (inactive); in the experiment on EKVX it was > 100 µM (inactive); in the experiment with CCRF-CEM, 48.3 µM (inactive); with UACC-257 it was 40 µM (inactive); in the experiment with COLO 205, 90.8 µM (inactive).

As to `CN(c1ccc(C(=O)c2ccc(N(C)S(C)(=O)=O)cc2)cc1)S(C)(=O)=O`, the GI50 is > 100 µM (inactive) with OVCAR-4; > 100 µM (inactive) in the experiment on 786-0; > 100 µM (inactive) in the experiment with A549; 59.8 µM (inactive) with SR; 27.9 µM (inactive) in the experiment on SK-MEL-5; > 100 µM (inactive) in the experiment on KM12. Further, the GI50 in the experiment with NCI-H226 is > 100 µM (inactive); in the experiment on A498 it was > 100 µM (inactive); with Malme-3M it was > 100 µM (inactive); in the experiment on SK-OV-3, > 100 µM (inactive); with NCI-H522, 94.2 µM (inactive); with SN12C, > 100 µM (inactive). Besides, the GI50 in the experiment on EKVX was 86.5 µM (inactive); in the experiment with CCRF-CEM, > 100 µM (inactive); in the experiment on UACC-257 it was 48.9 µM (inactive); in the experiment with COLO 205, > 100 µM (inactive).

As for `O=C1OC(c2ccccc2)=N/C1=C\c1ccccc1`, the GI50 with OVCAR-4 was 86.5 µM (inactive) and 49.7 µM (inactive); in the experiment with A549, > 100 µM (inactive); with SR it was 28.4 µM (inactive) and 14.5 µM (inactive); in the experiment with SK-MEL-5 it was 38.1 µM (inactive) and 29.4 µM (inactive); in the experiment with M14 it was 26.9 µM (inactive) and 30.4 µM (inactive); in the experiment on OVCAR-3, 24 µM (inactive). Also, the GI50 with KM12 is 34.8 µM (inactive) and 26.6 µM (inactive); in the experiment on NCI-H226, 24 µM (inactive) and 36.6 µM (inactive); in the experiment on A498, > 100 µM (inactive); with SK-OV-3, > 100 µM (inactive); in the experiment with NCI-H522 it was 42.9 µM (inactive); with SN12C, 66.4 µM (inactive). Further, the GI50 in the experiment on EKVX is > 100 µM (inactive); in the experiment with CCRF-CEM it was 21 µM (inactive) and 24.6 µM (inactive); in the experiment on UACC-257, 41.4 µM (inactive) and 25.9 µM (inactive).

On to `O=C(NC1CCCCC1)NC12CC3CC(CC(F)(C3)C1)C2`, for which the GI50 with 786-0, in the experiment on A549, with RXF 393, in the experiment on SK-MEL-5, with M14 and with OVCAR-3 was > 100 µM (inactive) each time. In addition, the GI50 with KM12 was > 100 µM (inactive); in the experiment with A498, > 100 µM (inactive); in the experiment on Malme-3M it was > 100 µM (inactive); with SK-OV-3, > 100 µM (inactive); in the experiment on NCI-H522 it was > 100 µM (inactive); in the experiment on EKVX, 57.7 µM (inactive). In addition, the GI50 in the experiment with CCRF-CEM, in the experiment on UACC-257 and in the experiment with COLO 205 was > 100 µM (inactive) throughout.

As to `c1ccc(C2N3CCCCC3[C@@H]3c4[nH]c5ccccc5c4CCN23)cc1` (some centres not stated), the GI50 in the experiment on OVCAR-4 was 29.5 µM (inactive); in the experiment on 786-0, > 100 µM (inactive); with A549 it was > 100 µM (inactive); with HCT-15 it was more than 100 µM; with RXF 393, 47.3 µM (inactive); in the experiment with SK-MEL-5, 67.3 µM (inactive). For the same compound, the GI50 with M14 was > 100 µM (inactive); with OVCAR-3, > 100 µM (inactive); with A498 it was 27 µM (inactive); with Malme-3M, 27 µM (inactive); in the experiment with SK-OV-3, > 100 µM (inactive); in the experiment on SN12C, > 100 µM (inactive). Moreover, the GI50 in the experiment with EKVX was > 100 µM (inactive); in the experiment with CCRF-CEM, 28.6 µM (inactive); in the experiment with UACC-257, > 100 µM (inactive); in the experiment on COLO 205, 23.3 µM (inactive).

For `Cc1ccccc1NC(=O)CSc1nnc(Cc2ccccc2)o1`, the GI50 in the experiment with OVCAR-4 was > 100 µM (inactive); in the experiment with 786-0, > 100 µM (inactive); in the experiment on A549 it was > 100 µM (inactive); in the experiment with HCT-15, more than 100 µM; with RXF 393, > 100 µM (inactive); with SK-MEL-5, > 100 µM (inactive). Further, the GI50 in the experiment with M14, in the experiment on OVCAR-3, in the experiment on KM12, in the experiment with NCI-H226, in the experiment with Malme-3M and with SK-OV-3 was > 100 µM (inactive) each time. The GI50 in the experiment on NCI-H522, in the experiment with SN12C, in the experiment on CCRF-CEM, in the experiment on UACC-257 and in the experiment with COLO 205 was > 100 µM (inactive) in each case.

Turning to `Cn1nc(-c2ccccc2)c(C(=O)/C=C/c2ccccc2)c(N2CCCC2)c1=O`, the GI50 is 13.2 µM (inactive) in the experiment with 786-0; 19.9 µM (inactive) with A549; 13.5 µM in the experiment with HCT-15; 6.59 µM (inactive) with RXF 393; 15.3 µM (inactive) with SK-MEL-5; 15.7 µM (inactive) with M14. The GI50 is 11.4 µM (inactive) in the experiment with A498; 22.7 µM (inactive) with SK-OV-3; 4.83 µM (inactive) in the experiment with NCI-H522; 20.7 µM (inactive) with SN12C; 20.4 µM (inactive) in the experiment with EKVX; 7.8 µM (inactive) in the experiment with CCRF-CEM. Besides, the GI50 in the experiment with COLO 205 is 14.9 µM (inactive).

As for `COc1ccc2c(c1)[n+]([O-])c(C(C)=O)c(C)[n+]2[O-]`, the GI50 in the experiment on OVCAR-4 is > 100 µM (inactive); in the experiment on 786-0, > 100 µM (inactive); in the experiment with A549, > 100 µM (inactive); in the experiment with HCT-15, more than 100 µM; in the experiment with RXF 393, > 100 µM (inactive); in the experiment with SK-MEL-5, > 100 µM (inactive). In addition, the GI50 in the experiment on M14, in the experiment with OVCAR-3, in the experiment with KM12, in the experiment with NCI-H226, in the experiment on Malme-3M and in the experiment with SK-OV-3 was > 100 µM (inactive) each time. In addition, the GI50 in the experiment with NCI-H522 is > 100 µM (inactive); in the experiment with SN12C, > 100 µM (inactive); in the experiment with EKVX, > 100 µM (inactive); in the experiment with CCRF-CEM, > 10 µM (inactive); in the experiment on UACC-257, > 100 µM (inactive); in the experiment with COLO 205 it was > 100 µM (inactive).

In the case of `CC(C)N(C(=O)C1(O)c2ccccc2C=Cc2ccccc21)C(C)C`, the GI50 was 22.5 µM (inactive) in the experiment with OVCAR-4; 20.6 µM (inactive) in the experiment on 786-0; 19.9 µM (inactive) with A549; 23.3 µM (inactive) in the experiment with SR; 21.1 µM with HCT-15; 16.3 µM (inactive) in the experiment with SK-MEL-5. The GI50 in the experiment with M14 was 19 µM (inactive); in the experiment on OVCAR-3, 16.9 µM (inactive); in the experiment on KM12, 22.9 µM (inactive); in the experiment on NCI-H226 it was 19.3 µM (inactive); in the experiment on A498 it was 16.3 µM (inactive); with Malme-3M, 17.6 µM (inactive). For the same compound, the GI50 in the experiment on SK-OV-3 is 25.3 µM (inactive); with NCI-H522, 12.5 µM (inactive); with SN12C it was 16.3 µM (inactive); with EKVX, 16.6 µM (inactive); in the experiment on COLO 205 it was 19.3 µM (inactive).
